The results in this text go back to patent US20200108043A1, “COMPOUNDS AND COMPOSITIONS FOR EXTENDING LIFESPAN OF A SUBJECT” (YALE UNIVERSITY, priority 2017, published 2020).

One assay concerns S. cerevisiae. It counts as cell-based. Here is the method:
To obtain the single-cell level data for the age and generation-durations of replicatively aging mother cells, data reported in Liu, P., et al., Cell Rep. 634-644 (2015) was re-analyzed. The data was collected in the same media condition (CSM 2% glucose) as reported elsewhere herein. Cells were grown for ˜24 hours in CSM 2% glucose prior to loading to the microfluidic device. Once cells were loaded, media was swapped to provide CSM 2% glucose control media (untreated), media containing DMSO as a vehicle control (American Bio AB00435), media containing 10 μM terreic acid (Sigma SML0480), media containing 10 μM mycophenolic acid (Sigma M5255), or media containing another compound at the indicated concentration. An automated microscope was used to track […], and replicative lifespan was later determined by counting the number of daughters produced before death. In the case of compound validation, only newborn cells were included in the lifespan experiment. To compare the replicative lifespan of labeled and unlabeled cells, only cells that were present within the traps at the start of the experiment were included. For these experiments, cells were loaded to the microfluidic device at an increased rate of 100 μL/min to increase the number of trapped mother cells. Green fluorescent images were also taken at the start of the experiment to confirm that the cells were visibly labeled.
Differences in lifespan characteristics were assessed through Log-Rank test using MATLAB with a cut-off value of P=0.05. The script for Log-Rank test was downloaded from MATLAB. Differences in proteasome activity were assessed using the unpaired, two-tailed, parametric t-test function of the GraphPad Prism software.
The Longevity Placement Test (LPT) was designed as a mutually exclusive, collectively exhaustive test to determine the relationship of a longevity intervention to a known genetic regulator of lifespan. For a given intervention that extends lifespan, any of three possible relationships may exist relative to a known genetic regulator of lifespan. (1) The intervention may act to extend lifespan independently from the known regulator. (2) The […] may act downstream from the known regulator, converging on a single component of the known regulator's lifespan pathway. (3) The intervention may act upstream from or upon the known regulator, ultimately modulating lifespan through the genetic regulator.
In Step 1 of the LPT, the longevity intervention is applied to a strain in which a genetic regulator of lifespan is deleted. In the event that lifespan extension from the longevity intervention is observed in this background, only possibilities (1) and (2) above remain valid (FIG. 7B). If no lifespan extension is observed, then possibilities (2) and (3) remain valid. Possibility (2) cannot be ruled out in this step, since non-saturating action by the genetic regulator could leave room for lifespan extension by the longevity intervention, while saturating action would preclude it.
In Step 2 of the LPT, an epistatic agent, which prevents lifespan extension from the longevity agent, is applied to a strain in which some upstream member of the genetic regulator's lifespan pathway has been modified to extend lifespan. This step differentiates possibility (2) from the remaining possibility after Step 1. In the event that lifespan extension from the genetic regulator's pathway is suppressed by the epistatic agent, this determines that possibility (2) is correct. In the event that no epistasis is observed, the remaining possibility, (1) or (3), is correct (FIG. 7C).

The next assay deals with C. elegans. The experiment in a line: Roundworm (C. elegans) lifespan extension. The settings on record: 10 μM in NGM plates, treated for duration of lifespan, vs control. It is filed as in vivo, Caenorhabditis elegans. Here is the method:
Synchronized animals were obtained using the egg-laying method, allowing young […] eggs for 4 hours on bacteria-seeded plates. For each treatment group, 120 synchronized day-1 adults were used. All experiments were carried out at 20° C. Treatment groups were blinded. Nematode growth media (NGM) plates were made for each treatment group: Negative control (DMSO), Mycophenolic Acid (10 μM in DMSO), and Terreic Acid (10 μM in DMSO). The compounds were added to NGM media before pouring the plates. The plates were then dried overnight before moving them to 4° C. to prevent degradation of the compounds. Plates were seeded with 100 μL of 10× concentrated OP50 E. coli, and dried overnight at room temperature. Plates were UV treated with a UVP CL-1000 Ultraviolet Crosslinker, run twice on the energy setting ‘9999’ for about 5 minutes each run. Worms were transferred to new plates every 2-4 days. Viability was scored every day, with death determined by lack of response to a platinum wire. Missing worms, or those that died due to internal hatching were censored.

The next assay concerns the target T1, proteasome (Saccharomyces cerevisiae, UniProt P30656).
T1 construct: with 50 μg of total protein in 200 μL of lysis buffer; endogenous in cells; host or cells: S. cerevisiae BY4741 wild-type or ΔUBR2 cells, glass-bead lysate (total protein extract)
The experiment in a line: Proteasome assay with fluorogenic substrate Suc-LLVY-AMC on yeast protein extracts. It is filed as biochemical. The settings on record: wild-type (BY4741) cells, presence vs absence of MPA. Here is the method: For protein extraction, 50 mL of cells were grown for 18 hours to an OD600 of approximately 0.8, then transferred to a 50 mL conical tube and centrifuged at 4255×g for 5 minutes at room temperature. The supernatant was discarded, and the cells were re-suspended in 150 μL of cold lysis buffer (50 mM Tris-HCl, pH 7.5, 0.5 mM EDTA, 5 mM MgCl2, with complete ULTRA mini protease inhibitor tablets, EDTA free) and transferred to a 1.5 mL tube. A ¼ volume of 500-750 μm glass beads (Acros Organics 397641000) was added to each tube. For 10 rounds, the tubes were chilled in ice water for 1 minute, then vortexed at maximum speed for 30 seconds to physically rupture the cells, and returned to the ice water. Samples were then spun for 3 minutes at 2500×g and 4° C., and the supernatant was transferred to a fresh tube. The solution was further clarified by centrifugation at 8000×g for 10 minutes at 4° C., and the supernatant was transferred to a fresh tube. Protein concentration was measured using a Nanodrop measuring the absorbance of the sample at 280 nm.
The proteasome assay used was described in Kruegel, et al. PLoS Genet. 7, (2011). The assay was performed in a 96-well clear-bottom plate (Costar 3603) with 50 μg of total protein in 200 μL of lysis buffer. The fluorogenic proteasome substrate Suc-LLVY-AMC (Bachem 1-1395) was added to a final concentration of 100 μM. Fluorescence intensity with an excitation wavelength of 380 nm and an emission wavelength of 460 nm was recorded at 5-minute intervals using a Neo2 plate reader (BioTek) set to mix constantly and maintain 30° C. Negative control reactions were performed in the presence of 50 μM MG132 (Sigma 474787), a proteasome inhibitor.

Entries after “also recorded” stand apart in the source; their conditions may differ.

As to `COc1c(C)c2c(c(O)c1C/C=C(\C)CCC(=O)O)C(=O)OC2` [mycophenolic acid], the “lifespan extension with treatment for only part of the lifespan” value in the assay on S. cerevisiae (10 μM MPA only first 24 hours or only after first 24 hours, compared to whole-lifespan treatment) was “reduced lifespan extension compared to whole-lifespan treatment”. For the same molecule, the “lifespan extension with pulse treatment” value with S. cerevisiae (10 μM MPA, 6-hour pulse between 24th and 30th hour) is “little to no lifespan extension”. In the assay with S. cerevisiae (10 μM compound, wild-type haploid cells, Replicator device), the “extension of mean RLS” value is reported as 20%. Moreover, in the assay on S. cerevisiae (absence of SIR2, ΔSIR2ΔFOB1 background), the “lifespan in ΔSIR2ΔFOB1 background (LPT step 1)” value is given as “able to extend the lifespan”. Moreover, the “lifespan in ΔHXK2 strain (LPT step 1)” value in the assay with S. cerevisiae (long-lived ΔHXK2 strain) is given as “further extended lifespan”. For the same molecule, the “lifespan in ΔTOR1 strain (LPT step 1)” value with S. cerevisiae (long-lived ΔTOR1 strain) is recorded as “further extended lifespan”. Besides, the “replicative lifespan (RLS) with and without supplemental guanine” value in the assay with S. cerevisiae (wild-type haploid yeast BY4741, MPA without supplemental guanine vs control and guanine supplemented) was “extended longevity”. Further, the “RLS in ΔPRE9 strain” value in the assay on S. cerevisiae (ΔPRE9 strain) is listed as “extends RLS”. In addition, in the assay with S. cerevisiae (ΔUBR2 strain), the “RLS in ΔUBR2 strain (LPT step 1)” value was “moderately, but not significantly, extended RLS”. Moreover, the “lifespan of C. elegans” value with C. elegans is “measurable extension of lifespan; also recorded: statistically significant lifespan extension”. In addition, the “proteasome activity in wild-type cells” value on proteasome was “did not activate the proteasome”.
